Patent publication US20240382482A1, “PLASMA KALLIKREIN INHIBITORS” (TAKEDA PHARMACEUTICAL COMPANY LIMITED, priority 2021, published 2024)
Structures can show the parent of a compound that is named as a salt.

How the values were obtained:
plasma kallikrein = molecular target: T1, plasma kallikrein (Homo sapiens, UniProt P03952); experiment: Neat human plasma assay (fluorogenic peptide), contact pathway-activated plasma; assay type: biochemical; conditions: sodium citrate human plasma (78% final), 10 nM human FXIIa, 100 μM PFR-AMC, room temperature
T1 construct: added to sodium citrate collected human or rat plasma in a 96-well microplate; from tissue
Method: To analyze inhibition of plasma kallikrein in an ex vivo setting, the potency of compounds was measure in contact pathway-activated plasma assays. In a fluorogenic peptide substrate assay, test compounds dissolved in DMSO were added to sodium citrate collected human or rat plasma in a 96-well microplate. Alternatively, citrated plasma was collected from rats administered the compounds orally or by IV. 10 nM of human FXIIa (Enzyme Research Laboratories) diluted in PKa buffer (20 mM Tris-HCl, pH 7.5, 150 mM NaCl, 1 mM EDTA, 0.1% PEG-8000, and 0.1% Triton X-100) was added to the plasma, followed by the 100 μM of the profluorescent, synthetic plasma kallikrein substrate PFR-AMC (also diluted in PKa buffer). Final plasma concentration in the reaction was 78%. Fluorescence was immediately monitored by excitation/emission wavelengths of 360 nm/480 nm respectively over a period of 5 minutes in a microplate reader. The resulting linear increase in fluorescence emission (reflecting PKa proteolysis of PFR-AMC substrate) was fit to extract a proteolytic rate (fluorescent units over time), and this rate was subsequently plotted against compound inhibitor concentration. Resulting plots were fit to a standard 4-parameter IC50/IC90 equation to determine min/max values, IC50/90, and slope. All experimental steps were performed at room temperature.

[1] = molecular target: human activated kallikrein enzyme (Homo sapiens, UniProt P03952); experiment: Inhibition of human activated kallikrein enzyme, fluorogenic peptide substrate assay (500 pM enzyme format); assay type: biochemical; conditions: 500 pM activated kallikrein, 300 μM PFR-AMC substrate, 30 min preincubation, 10 min reaction, room temperature; read-out: Primary Dose Response Assay: Average EC50
Summary of the method: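 500 pM enzyme preincubated 30 min at room temperature with inhibitor in 20 mM Tris pH 7.5, 150 mM NaCl, 1 mM EDTA, 0.1% PEG-400, 0.1% Triton X-100. Reaction started with 300 μM PFR-AMC and run 10 min at room temperature. AMC fluorescence read at ex 380/em 460 nm, and EC50 values reported as ranges.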

T1 sequence (P03952 391-638 limits assumed): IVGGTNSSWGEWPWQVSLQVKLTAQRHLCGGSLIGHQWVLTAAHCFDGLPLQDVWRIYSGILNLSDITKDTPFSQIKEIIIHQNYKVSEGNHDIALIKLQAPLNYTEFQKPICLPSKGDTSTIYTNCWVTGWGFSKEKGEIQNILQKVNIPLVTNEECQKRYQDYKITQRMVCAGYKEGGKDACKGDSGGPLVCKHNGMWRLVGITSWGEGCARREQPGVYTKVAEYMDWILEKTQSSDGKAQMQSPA
T1 sequence (P03952 20-390 partner limits assumed): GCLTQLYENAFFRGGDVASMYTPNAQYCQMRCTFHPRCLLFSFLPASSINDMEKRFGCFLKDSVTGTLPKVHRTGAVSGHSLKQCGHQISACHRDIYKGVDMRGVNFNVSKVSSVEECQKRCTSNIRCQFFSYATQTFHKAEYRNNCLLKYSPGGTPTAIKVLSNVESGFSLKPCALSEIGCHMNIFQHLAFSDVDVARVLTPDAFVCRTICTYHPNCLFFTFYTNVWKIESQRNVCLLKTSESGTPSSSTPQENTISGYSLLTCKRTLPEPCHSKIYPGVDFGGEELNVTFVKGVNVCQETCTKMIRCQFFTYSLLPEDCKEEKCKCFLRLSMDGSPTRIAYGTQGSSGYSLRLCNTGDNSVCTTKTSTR
human activated kallikrein enzyme, sequence (P03952 391-638 limits assumed): as the sequence (P03952 391-638 limits assumed) above
human activated kallikrein enzyme, sequence (P03952 20-390 partner limits assumed): as the sequence (P03952 20-390 partner limits assumed) above

| Structure (SMILES) | IC90 (plasma kallikrein) [nM] | EC50 [1] [nM] |
| --- | --- | --- |
| Cc1cc(N)nc(C)c1CNc1cc(OCc2cn3cc(C4CC4)cc(C#N)c3n2)ncn1 [Example 112, 2-(((6-(((6-amino-2,4-dimethylpyridin-3-yl)methyl)amino)pyrimidin-4-yl)oxy)methyl)-6-cyclopropylimidazo[1,2-a]pyridine-8-carbonitrile] | 500 to 5000 | ≤ 5 |
| Cc1cc(N)nc(C)c1CNc1cc(OCc2cn3cc(C4CC4)cc(CO)c3n2)ncn1 [Example 113, (2-(((6-(((6-amino-2,4-dimethylpyridin-3-yl)methyl)amino)pyrimidin-4-yl)oxy)methyl)-6-cyclopropylimidazo[1,2-a]pyridin-8-yl)methanol] | 5000 to 25000 | ≤ 5 |
| O=C(NCc1ncn2ccc(Cl)cc12)c1cnnc(OCc2cn3cc(C4CC4)ccc3n2)c1 [Example 66, N-((7-chloroimidazo[1,5-a]pyridin-1-yl)methyl)-6-((6-cyclopropylimidazo[1,2-a]pyridin-2-yl)methoxy)pyridazine-4-carboxamide] |  | 5 to 50 |
| O=C(Cc1ncn2ccc(Cl)cc12)Nc1cncnc1NCc1cn2cc(C3CC3)cc(CO)c2n1 [Example 41, 2-(7-chloroimidazo[1,5-a]pyridin-1-yl)-N-(4-(((6-cyclopropyl-8-(hydroxymethyl)imidazo[1,2-a]pyridin-2-yl)methyl)amino)pyrimidin-5-yl)acetamide] |  | 5 to 50 |
| O=C(CC1(c2cccc(Cl)c2)CC1)Nc1cc(NCc2cn3cc(C4CC4)ccc3n2)ccn1 [Example 126, 2-(1-(3-chlorophenyl)cyclopropyl)-N-(4-(((6-cyclopropylimidazo[1,2-a]pyridin-2-yl)methyl)amino)pyridin-2-yl)acetamide] |  | 500 to 9000 |
| COc1ccc(N)c(CC(=O)Nc2cc(NCc3cn4cc(C5CC5)ccc4n3)ncn2)c1F [Example 36, 2-(6-amino-2-fluoro-3-methoxyphenyl)-N-(6-(((6-cyclopropylimidazo[1,2-a]pyridin-2-yl)methyl)amino)pyrimidin-4-yl)acetamide] |  | 500 to 9000 |
| COc1ccc(-n2cnnn2)c(CNc2cc(C(F)(F)c3cn4cc(C5CC5)ccc4n3)ncn2)c1F [Example 62, 6-((6-cyclopropylimidazo[1,2-a]pyridin-2-yl)difluoromethyl)-N-(2-fluoro-3-methoxy-6-(1H-tetrazol-1-yl)benzyl)pyrimidin-4-amine] |  | 500 to 9000 |
| CCOC(=O)NC(=N)c1cc(C)c(CNc2cc(OCc3cn4cc(C5CC5)ccc4n3)nc(C(=O)OCC)n2)c(C)c1 [Example 86, ethyl 4-((6-cyclopropylimidazo[1,2-a]pyridin-2-yl)methoxy)-6-(4-(N-(ethoxycarbonyl)carbamimidoyl)-2,6-dimethylbenzylamino)pyrimidine-2-carboxylate] |  | 50 to 500 |
| O[C@H]1C[C@H](c2cn3cc(C4CC4)ccc3n2)N(c2cc(NCc3cc4c(Cl)c[nH]c4cc3F)ncn2)C1 [Example 139, (3S,5R)-1-(6-(((3-chloro-6-fluoro-1H-indol-5-yl)methyl)amino)pyrimidin-4-yl)-5-(6-cyclopropylimidazo[1,2-a]pyridin-2-yl)pyrrolidin-3-ol] |  | 50 to 500 |
| CN(Cc1cn2cc(C3CC3)cc(N3CCCC3=O)c2n1)c1cc(NC(=O)Cc2ncn3ccc(Cl)cc23)ncn1 [Example 18] |  | ≤ 5 |
| CC(Oc1cccc(Cl)c1)C(=O)Nc1cc(NCc2cn3cc(C4CC4)ccc3n2)ncn1 (stereo not shown) [Example 49, 2-(3-chlorophenoxy)-N-(6-(((6-cyclopropylimidazo[1,2-a]pyridin-2-yl)methyl)amino)pyrimidin-4-yl)propanamide formic acid salt] |  | 500 to 9000 |
| O=C(Cc1ncn2ccc(Cl)cc12)Nc1cnnc(OCc2cn3cc(C4CC4)ccc3n2)c1 [Example 34, 2-(7-chloroimidazo[1,5-a]pyridin-1-yl)-N-(6-((6-cyclopropylimidazo[1,2-a]pyridin-2-yl)methoxy)pyridazin-4-yl)acetamide] |  | 50 to 500 |
| CCCCCCOC(=O)NC(=N)c1cc(C)c(CNc2cc(OCc3cn4cc(C5CC5)ccc4n3)nc(C(=O)OCC)n2)c(C)c1 [Example 87, ethyl 4-((6-cyclopropylimidazo[1,2-a]pyridin-2-yl)methoxy)-6-(4-(N-(hexyloxycarbonyl)carbamimidoyl)-2,6-dimethylbenzylamino)pyrimidine-2-carboxylate] |  | 50 to 500 |
| O=C(Cc1ncnc2ccc(Cl)cc12)Nc1cc(NCc2cn3cc(C4CC4)ccc3n2)ncn1 [Example 104, 2-(6-chloroquinazolin-4-yl)-N-(6-(((6-cyclopropylimidazo[1,2-a]pyridin-2-yl)methyl)amino)pyrimidin-4-yl)acetamide] |  | > 9000 |

Next, values leading:

| IC90 (plasma kallikrein) [nM] | EC50 [1] [nM] | Structure (SMILES) |
| --- | --- | --- |
| 500 to 5000 | ≤ 5 | O=C(Cc1ncn2ccc(Cl)cc12)Nc1cc(NCc2cn3cc(C4CC4)ccc3n2)cnn1 [Example 31, 2-(7-chloroimidazo[1,5-a]pyridin-1-yl)-N-(5-(((6-cyclopropylimidazo[1,2-a]pyridin-2-yl)methyl)amino)pyridazin-3-yl)acetamide] |
| 500 to 5000 | ≤ 5 | COc1ccc(-n2cnnn2)c(CNc2cc(NCc3cn4cc(C5CC5)ccc4n3)ncn2)c1F [Example 55, N^4-((6-cyclopropylimidazo[1,2-a]pyridin-2-yl)methyl)-N^6-(2-fluoro-3-methoxy-6-(1H-tetrazol-1-yl)benzyl)pyrimidine-4,6-diamine] |
| ≤ 500 | ≤ 5 | Cc1cc(N)nc(C)c1CNc1cc(N2C[C@@H](O)C[C@@H]2c2cn3cc(C4CC4)ccc3n2)ncn1 [Example 135, (3S,5R)-1-(6-(((6-amino-2,4-dimethylpyridin-3-yl)methyl)amino)pyrimidin-4-yl)-5-(6-cyclopropylimidazo[1,2-a]pyridin-2-yl)pyrrolidin-3-ol] |
| 500 to 5000 | ≤ 5 | O=C(Cc1ncn2ccc(Cl)cc12)Nc1cc(NCc2cn3cc(C4CC4)cc(N4CCCC4=O)c3n2)ncn1 [Example 12, 2-(7-chloroimidazo[1,5-a]pyridin-1-yl)-N-(6-(((6-cyclopropyl-8-(2-oxopyrrolidin-1-yl)imidazo[1,2-a]pyridin-2-yl)methyl)amino)pyrimidin-4-yl)acetamide] |
| 5000 to 25000 | ≤ 5 | Cc1cc(N)nc(C)c1CNc1cc(OCc2cn3cc(C4CC4)ccc3n2)ncn1 [Example 107, N-((6-amino-2,4-dimethylpyridin-3-yl)methyl)-6-((6-cyclopropylimidazo[1,2-a]pyridin-2-yl)methoxy)pyrimidin-4-amine] |
| ≤ 500 | ≤ 5 | Cc1cc(N)nc(C)c1CNc1cc(OCc2cn3cc(C4CC4)cc(C4(F)COC4)c3n2)ncn1 [Example 109, N-((6-amino-2,4-dimethylpyridin-3-yl)methyl)-6-((6-cyclopropyl-8-(3-fluorooxetan-3-yl)imidazo[1,2-a]pyridin-2-yl)methoxy)pyrimidin-4-amine] |
| 5000 to 25000 | ≤ 5 | Cc1cc(N)nc(C)c1CNc1cc(OCc2cn3cc(C4CC4)ccc3n2)ccn1 [Example 110, 5-(((4-((6-cyclopropylimidazo[1,2-a]pyridin-2-yl)methoxy)pyridin-2-yl)amino)methyl)-4,6-dimethylpyridin-2-amine] |
| 500 to 5000 | ≤ 5 | O=C(Cc1ncn2ccc(Cl)cc12)Nc1cc(NCc2cn3cc(C4CC4)ccc3n2)ncn1 [Example 1, 2-(7-chloroimidazo[1,5-a]pyridin-1-yl)-N-(6-(((6-cyclopropylimidazo[1,2-a]pyridin-2-yl)methyl)amino)pyrimidin-4-yl)acetamide] |
| ≤ 500 | ≤ 5 | CN1CCN(c2cc(C3CC3)cn3cc(CNc4cc(NC(=O)Cc5ncn6ccc(Cl)cc56)ncn4)nc23)CC1 [Example 17, 2-(7-chloroimidazo[1,5-a]pyridin-1-yl)-N-(6-(((6-cyclopropyl-8-(4-methylpiperazin-1-yl)imidazo[1,2-a]pyridin-2-yl)methyl)amino)pyrimidin-4-yl)acetamide] |
|  | ≤ 5 | CCOC(=O)CCc1nc(NCc2c(C)cc(C(=N)N)cc2C)cc(OCc2cn3cc(C4CC4)ccc3n2)n1 [Example 70, ethyl 3-(4-((4-carbamimidoyl-2,6-dimethylbenzyl)amino)-6-((6-cyclopropylimidazo[1,2-a]pyridin-2-yl)methoxy)pyrimidin-2-yl)propanoate formic acid salt] |
|  | ≤ 5 | Cc1cc(C(=N)N)cc(C)c1CNc1cc(OCc2cn3cc(C4CC4)ccc3n2)nc(-c2nn[nH]n2)n1 [Example 91, 4-(((6-((6-cyclopropylimidazo[1,2-a]pyridin-2-yl)methoxy)-2-(2H-tetrazol-5-yl)pyrimidin-4-yl)amino)methyl)-3,5-dimethylbenzimidamide] |
|  | ≤ 5 | Cc1cc(C(=N)N)cc(C)c1CNc1cc(OCc2cn3cc(C4CC4)cc(CCC(=O)O)c3n2)ncn1 [Example 97, 3-(2-(((6-((4-carbamimidoyl-2,6-dimethylbenzyl)amino)pyrimidin-4-yl)oxy)methyl)-6-cyclopropylimidazo[1,2-a]pyridin-8-yl)propanoic acid] |
